Test results as given in patent US20250261660A1, “FORMULATIONS AND METHODS FOR USE IN OXIDATION TREATMENT APPLICATIONS” (priority 2022, published 2025).

system: microbial control in water; experiment: Microbial control in water at slightly alkaline pH, comparison of oxidants; assay type: cell-based
From the text: (§1) In some embodiments, microbial control in water at slightly alkaline pH was compared between peracetate oxidant, chlorine bleach, peracetic acid and chlorine dioxide. Alkaline pH is encountered in a variety of applications where microbial control and sanitization is needed, including pulp and paper processing.
as §1, with “water treatment” for “pulp”, “chill tanks in poultry processing, a type of food” for “paper”

Q: Which “performance as antimicrobial disinfectant” value (shortened to “performance”) does the source give for `[O][Cl+][O-]` [chlorine dioxide] here?
A: Its value is “performed well”.

Q: How did the “performance” value turn out when `CC(=O)OO` [peracetic acid] was run?
A: Its value is “lowest performance”.

Q: Which “performance” value does the source give for `OCl` [chlorine bleach, hypochlorite] here?
A: The value was “lowest performance”.
